In test [1] the target is GCN2 kinase (Homo sapiens (Human), UniProt Q9P2K8). The test is described as follows: GCN2 Enzyme Inhibition Assay (Transcreener ADP2 fluorescence polarization). In kind it is biochemical. The note with it: 280 μM ATP, 200 μM (RS)7 peptide, 4 nM GCN2, 25° C.; for Ki: Ki(app). A digest of the protocol:
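At 25 °C, GCN2 kinase (typical final concentration 4 nM) and (RS)7 peptide in Tris-HCl pH 7.5 buffer with MgCl2, NaCl and DTT were preincubated with compound for 10 min, then ATP was added for a 1 h reaction. ADP was read by FP with antibody/Alexa633 tracer. Non-linear tight-binding analysis gave IC50 and apparent Ki.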

The target in test [2] is intracellular GCN2 (phosphorylation of the GCN2 substrate eIF2α) (Homo sapiens (Human), UniProt Q9P2K8). The experiment in a line: GCN2 Cellular Inhibition Assay (AlphaScreen SureFire P-eIF2α Ser51, borrelidin-treated U2OS cells). In kind it is cell-based. The note with it: 10 μM borrelidin, 1 h, phosphorylated eIF2α Ser51, read-out: GCN2 Biomarker (IC50). A digest of the protocol:
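Phospho-eIF2α (Ser51) measured by AlphaScreen SureFire in lysates of U2OS cells stimulated 1 h at 37 °C with 10 μM borrelidin alongside compound, 4-fold dilutions from 40 μM. Inhibition expressed as percent relative to borrelidin-alone controls.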

Structures are written as SMILES.

Chain of GCN2 kinase (Q9P2K8 whole entry): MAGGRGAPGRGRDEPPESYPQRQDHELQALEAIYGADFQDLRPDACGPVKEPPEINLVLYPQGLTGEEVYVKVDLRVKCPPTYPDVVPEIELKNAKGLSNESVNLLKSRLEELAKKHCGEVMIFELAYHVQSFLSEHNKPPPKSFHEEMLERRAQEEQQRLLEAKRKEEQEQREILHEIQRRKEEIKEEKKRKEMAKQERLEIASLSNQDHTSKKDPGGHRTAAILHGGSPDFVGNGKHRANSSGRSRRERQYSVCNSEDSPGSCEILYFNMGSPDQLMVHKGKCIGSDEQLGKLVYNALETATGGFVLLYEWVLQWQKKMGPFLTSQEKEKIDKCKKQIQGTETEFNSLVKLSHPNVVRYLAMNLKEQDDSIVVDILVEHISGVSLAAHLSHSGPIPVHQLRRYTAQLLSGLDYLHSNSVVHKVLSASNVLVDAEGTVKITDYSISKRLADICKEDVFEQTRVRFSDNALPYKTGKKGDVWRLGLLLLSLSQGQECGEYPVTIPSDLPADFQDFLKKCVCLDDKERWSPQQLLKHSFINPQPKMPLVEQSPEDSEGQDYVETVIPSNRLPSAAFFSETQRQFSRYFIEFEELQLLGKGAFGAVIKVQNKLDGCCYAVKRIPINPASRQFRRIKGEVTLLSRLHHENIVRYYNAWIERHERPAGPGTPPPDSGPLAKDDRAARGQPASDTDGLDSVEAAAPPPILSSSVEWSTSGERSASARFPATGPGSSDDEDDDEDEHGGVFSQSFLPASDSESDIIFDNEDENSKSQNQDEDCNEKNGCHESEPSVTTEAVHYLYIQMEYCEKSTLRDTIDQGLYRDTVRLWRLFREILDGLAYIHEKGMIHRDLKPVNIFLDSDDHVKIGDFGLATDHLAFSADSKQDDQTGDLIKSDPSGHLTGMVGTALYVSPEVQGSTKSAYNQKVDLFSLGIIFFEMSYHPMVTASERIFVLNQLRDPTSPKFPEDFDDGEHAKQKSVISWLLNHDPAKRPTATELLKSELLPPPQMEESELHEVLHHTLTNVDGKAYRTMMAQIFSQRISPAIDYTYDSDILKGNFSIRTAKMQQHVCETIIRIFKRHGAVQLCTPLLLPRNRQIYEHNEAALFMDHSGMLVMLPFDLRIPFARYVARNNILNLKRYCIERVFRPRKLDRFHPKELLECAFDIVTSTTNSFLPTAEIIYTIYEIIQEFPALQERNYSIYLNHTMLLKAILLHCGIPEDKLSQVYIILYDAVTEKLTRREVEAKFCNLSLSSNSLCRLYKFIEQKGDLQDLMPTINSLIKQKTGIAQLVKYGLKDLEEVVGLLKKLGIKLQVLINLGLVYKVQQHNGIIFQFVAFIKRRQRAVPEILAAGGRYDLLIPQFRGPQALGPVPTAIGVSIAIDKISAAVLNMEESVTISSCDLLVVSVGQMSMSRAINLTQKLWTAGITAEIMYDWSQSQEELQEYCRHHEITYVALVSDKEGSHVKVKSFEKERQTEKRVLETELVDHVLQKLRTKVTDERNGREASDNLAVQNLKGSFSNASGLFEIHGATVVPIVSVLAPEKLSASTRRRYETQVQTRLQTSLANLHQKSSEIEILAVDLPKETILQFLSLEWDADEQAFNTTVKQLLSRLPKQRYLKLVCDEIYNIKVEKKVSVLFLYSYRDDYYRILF
Chain of intracellular GCN2 (phosphorylation of the GCN2 substrate eIF2α) (Q9P2K8 whole entry): as above

In the case of `Cc1oncc1[C@H]1CN(c2ccnc(-c3cnc4ccc(C(F)(F)F)cn34)n2)C[C@H](C)O1` [I-345, (2S,6S)-2-methyl-6-(5-methylisoxazol-4-yl)-4-(2-(6-(trifluoromethyl)imidazo[1,2-a]pyridin-3-yl)pyrimidin-4-yl)morpholine], the half-maximal inhibitory concentration (IC50) in test [1] lay within 100 to 1000 nM; in test [2] it was 500 to 5000 nM.
Molecule `FC(F)c1ccc2ncc(-c3nccc(N4CCOC(c5cn[nH]c5)C4)n3)n2c1` (centres unmarked) [I-15, 4-[2-[6-(Difluoromethyl)imidazo[1,2-a]pyridin-3-yl]pyrimidin-4-yl]-2-(1H-pyrazol-4-yl)morpholine] came in with a Ki in test [1] below 10 nM. Besides, the IC50 in test [2] is below 500 nM.
Consider `CC(C)n1ccc(C(=O)N2[C@H](C)CN(c3ccnc(-c4cnc5ccc(C(F)(F)F)cn45)n3)C[C@@H]2C)n1` [I-401, (cis-2,6-dimethyl-4-(2-(6-(trifluoromethyl)imidazo[12-a]pyridin-3-yl)pyrimidin-4-yl)piperazin-1-yl)(1-isopropyl-1H-pyrazol-3-yl)methanone], for which the half-maximal inhibitory concentration (IC50) is 100 to 1000 nM in test [1] and 500 to 5000 nM in test [2].
Taken in the same sequence, the figures for `CC1C(CNS(C)(=O)=O)N(C2COC2)CCN1c1ccnc(-c2cnc3ccc(C(F)F)cn23)n1` (centres unmarked) [I-530, N-((4-(2-(6-(difluoromethyl)imidazo[1,2-a]pyridin-3-yl)pyrimidin-4-yl)-3-methyl-1-(oxetan-3-yl)piperazin-2-yl)methyl)methanesulfonamide] were 10 to 100 nM and 500 to 5000 nM.
For `C[C@H]1C[C@H](c2cn[nH]c2)CN(c2nccc(-c3cnc4ccc(C5CC5)cn34)n2)C1` [I-235, 6-cyclopropyl-3-(2-((3S,5R)-3-methyl-5-(1H-pyrazol-4-yl)piperidin-1-yl)pyrimidin-4-yl)imidazo[1,2-a]pyridine], the concentration for half-maximal inhibition (IC50) in test [1] is 10 to 100 nM; in test [2], below 500 nM.
Regarding `OCC1CC(N2CCN(c3ccnc(-c4cnc5ccc(C(F)(F)F)cn45)n3)CC2c2cn[nH]c2)C1` (centres unmarked) [I-390, (3-(2-(1H-pyrazol-4-yl)-4-(2-(6-(trifluoromethyl)imidazo[1,2-a]pyridin-3-yl)pyrimidin-4-yl)piperazin-1-yl)cyclobutyl)methanol], the 50% inhibitory concentration (IC50) is below 10 nM in test [1] and below 500 nM in test [2].
For `CS(=O)(=O)NC[C@@H]1CN(c2cncc(-c3cnc4ccc(Cl)cn34)n2)CCO1` [I-113, (S)—N-((4-(6-(6-chloroimidazo[1,2-a]pyridin-3-yl)pyrazin-2-yl)morpholin-2-yl)methyl)methanesulfonamide], in test [1], the Ki is below 10 nM. Further, the concentration for half-maximal inhibition (IC50) in test [2] lay in the range of 500 to 5000 nM.
On to `CC1(C)C[C@H]1CN1CCN(c2ccnc(-c3cnc4ccc(C(F)(F)F)cn34)n2)C[C@@H]1c1cn[nH]c1` [I-528, 3-(4-((S)-4-(((R)-2,2-dimethylcyclopropyl)methyl)-3-(1H-pyrazol-4-yl)piperazin-1-yl)pyrimidin-2-yl)-6-(trifluoromethyl)imidazo[1,2-a]pyridine], for which the IC50 in test [1] is 10 to 100 nM; in test [2], below 500 nM.
The corresponding values for `O=C(c1cnoc1)N1CCN(c2ccnc(-c3cnc4ccc(C(F)(F)F)cn34)n2)CC1c1cn[nH]c1` (centres unmarked) [I-444, (2-(1H-pyrazol-4-yl)-4-(2-(6-(trifluoromethyl)imidazo[1,2-a]pyridin-3-yl)pyrimidin-4-yl)piperazin-1-yl)(isoxazol-4-yl)methanone] are 10 to 100 nM and 500 to 5000 nM.
The corresponding values for `CS(=O)(=O)C1CC(N2CCN(c3ccnc(-c4cnc5ccc(C(F)(F)F)cn45)n3)C[C@H]2c2cn[nH]c2)C1` (stereo partly drawn) [I-490, 3-{4-[(R)-4-(3-Methanesulfonyl-cyclobutyl)-3-(1H-pyrazol-4-yl)-piperazin-1-yl]-pyrimidin-2-yl}-6-trifluoromethyl-imidazo[1,2-a]pyridine] are below 10 nM and below 500 nM.
`FC(F)(F)c1ccc2ncc(-c3nc(N4CCOC(c5cn[nH]c5)C4)ns3)n2c1` (centres unmarked) [I-108, 2-(1H-pyrazol-4-yl)-4-(5-(6-(trifluoromethyl)imidazo[1,2-a]pyridin-3-yl)-1,2,4-thiadiazol-3-yl)morpholine] returned a Ki in test [1] below 10 nM. For the same molecule, the half-maximal inhibitory concentration (IC50) in test [2] is below 500 nM.
Taken in the same sequence, the figures for `Clc1ccc2ncc(-c3nccc(N4CCCC(c5ccon5)C4)n3)n2c1` (centres unmarked) [I-66, 6-Chloro-3-[4-(3-isoxazol-3-yl-piperidin-1-yl)-pyrimidin-2-yl]-imidazo[1,2-a]pyridine] were 10 to 100 nM and 500 to 5000 nM.
As to `NC(=O)C1(O)CCCN(c2ccnc(-c3cnc4ccc(C(F)(F)F)cn34)n2)C1` (centres unmarked) [I-213, 3-hydroxy-1-(2-(6-(trifluoromethyl)imidazo[1,2-a]pyridin-3-yl)pyrimidin-4-yl)piperidine-3-carboxamide], the IC50 in test [1] was 10 to 100 nM; in test [2], 500 to 5000 nM.
The corresponding values for `COCCn1cc([C@H]2C[C@@H](C)CN(c3nccc(-c4cnc5ccc(C(F)(F)F)cn45)n3)C2)cn1` [I-143, 3-(2-((3R,5R)-3-(1-(2-methoxyethyl)-1H-pyrazol-4-yl)-5-methylpiperidin-1-yl)pyrimidin-4-yl)-6-(trifluoromethyl)imidazo[1,2-a]pyridine] are 10 to 100 nM and below 500 nM.
In the case of `FC(F)(F)c1ccc2ncc(-c3nccc(N4CCN(C[C@@H]5CC56CCOCC6)[C@H](c5cn[nH]c5)C4)n3)n2c1` [I-520, 3-(4-((R)-4-(((R)-6-oxaspiro[2.5]octan-1-yl)methyl)-3-(1H-pyrazol-4-yl)piperazin-1-yl)pyrimidin-2-yl)-6-(trifluoromethyl)imidazo[1,2-a]pyridine], the concentration for half-maximal inhibition (IC50) in test [1] was 10 to 100 nM; in test [2], below 500 nM.
In the case of `CS(=O)(=O)NC[C@@H]1CN(c2nsc(-c3cnc4ccc(C(F)(F)F)cn34)n2)CCO1` [I-109, (S)—N-((4-(5-(6-(trifluoromethyl)imidazo[1,2-a]pyridin-3-yl)-1,2,4-thiadiazol-3-yl)morpholin-2-yl)methyl)methanesulfonamide], the Ki in test [1] lay within 10 to 100 nM. Also, the concentration for half-maximal inhibition (IC50) in test [2] fell in the range of 500 to 5000 nM.
Consider `Cn1cc(C(=O)N2CCN(c3ccnc(-c4cnc5ccc(C(F)(F)F)cn45)n3)CC2c2cn[nH]c2)cn1` (centres unmarked) [I-418, (2-(1H-pyrazol-4-yl)-4-(2-(6-(trifluoromethyl)imidazo[1,2-a]pyridin-3-yl)pyrimidin-4-yl)piperazin-1-yl)(1-methyl-1H-pyrazol-4-yl)methanone], for which the half-maximal inhibitory concentration (IC50) in test [1] was in the range of 10 to 100 nM; in test [2], 500 to 5000 nM.
`CS(=N)(=O)C[C@H]1CCCN(c2ccnc(-c3cnc4ccc(C(F)(F)F)cn34)n2)C1` (some centres unmarked) [I-4, 3-(4-(3-((S-Methylsulfonimidoyl)methyl)piperidin-1-yl)pyrimidin-2-yl)-6-(trifluoromethyl)imidazo[1,2-a]pyridine] showed a Ki in test [1] of 10 to 100 nM. In addition, the IC50 in test [2] fell in the range of 500 to 5000 nM.
Consider `C[C@H]1[C@@H](c2cn[nH]c2)N(C2COC2)CCN1c1ccnc(-c2cnc3ccc(C(F)(F)F)cn23)n1` [I-361, 3-(4-((2S,3R)-2-methyl-4-(oxetan-3-yl)-3-(1H-pyrazol-4-yl)piperazin-1-yl)pyrimidin-2-yl)-6-(trifluoromethyl)imidazo[1,2-a]pyridine], for which the half-inhibitory concentration (IC50) lay in the range of 10 to 100 nM in test [1] and 500 to 5000 nM in test [2].
For `FC(F)(F)c1ccc2ncc(-c3ccnc(N4CCN(C[C@H]5CCCOC5)[C@H](c5cn[nH]c5)C4)n3)n2c1` [I-545, 3-(2-((R)-3-(1H-pyrazol-4-yl)-4-(((R)-tetrahydro-2H-pyran-3-yl)methyl)piperazin-1-yl)pyrimidin-4-yl)-6-(trifluoromethyl)imidazo[1,2-a]pyridine], the IC50 in test [1] was below 10 nM; in test [2], below 500 nM.
Taken in the same sequence, the figures for `C[C@H]1[C@H](c2cn[nH]c2)N(C2COC2)CCN1c1ccnc(-c2cnc3ccc(C(F)(F)F)cn23)n1` [I-364, 3-(4-((2S,3 S)-2-methyl-4-(oxetan-3-yl)-3-(1H-pyrazol-4-yl)piperazin-1-yl)pyrimidin-2-yl)-6-(trifluoromethyl)imidazo[1,2-a]pyridine] were 100 to 1000 nM and above 5000 nM.
The corresponding values for `NC(=O)[C@@H]1CN(c2ccnc(-c3cnc4ccc(C(F)(F)F)cn34)n2)CCN1C1CC1` [I-324, (S)-1-cyclopropyl-4-(2-(6-(trifluoromethyl)imidazzo[1,2-a]pyridin-3-yl)pyrimidin-4-yl)piperazine-2-carboxamide] are 100 to 1000 nM and above 5000 nM.
Taken in the same sequence, the figures for `Cc1[nH]ncc1C1NCCN(c2ccnc(-c3cnc4ccc(C(F)(F)F)cn34)n2)C1C` (centres unmarked) [I-321, 3-(4-(2-methyl-3-(5-methyl-1H-pyrazol-4-yl)piperazin-1-yl)pyrimidin-2-yl)-6-(trifluoromethyl)imidazo[1,2-a]pyridine] were 10 to 100 nM and 500 to 5000 nM.
For the molecule `COCC1(CN2CCN(c3ccnc(-c4cnc5ccc(C(F)(F)F)cn45)n3)[C@H](C)[C@@H]2c2cn[nH]c2)CCC1` (stereo in doubt) [I-511, 4-[(2R,3 S)-4-{[1-(methoxymethyl)cyclobutyl]methyl}-2-methyl-3-(1H-pyrazol-4-yl)piperazin-1-yl]-2-[6-(trifluoromethyl)imidazo[1,2-a]pyridin-3-yl]pyrimidine], the figures for the half-inhibitory concentration (IC50) in test [1] and in test [2] were below 10 nM and below 500 nM, respectively.
Taken in the same sequence, the figures for `COCCn1cc([C@H]2C[C@H](C)CN(c3nccc(-c4cnc5ccc(C(F)(F)F)cn45)n3)C2)cn1` [I-144, 3-(2-((3R,5S)-3-(1-(2-methoxyethyl)-1H-pyrazol-4-yl)-5-methylpiperidin-1-yl)pyrimidin-4-yl)-6-(trifluoromethyl)imidazo[1,2-a]pyridine] were 100 to 1000 nM and below 500 nM.

Values taken from patent US10793563B2, “GCN2 inhibitors and uses thereof” (Merck Patent GmbH, priority 2018, dated 2020).
